Laboratory results: patent US20160355483A1, “COMPOUND BINDING TO PPARG BUT NOT ACTING AS PROMOTER AND PHARMACEUTICAL COMPOSITION FOR TREATING PPARG-RELATED DISEASES CONTAINING SAME AS ACTIVE INGREDIENT” (Hyundai Pharm Co., Ltd., priority 2014, published 2016)

Biological target: T1, PPARG (peroxisome proliferator activated receptor-gamma), GST-PPARG-LBD (Homo sapiens, UniProt P37231)
T1 construct: 15 μL of 5 nM GST-PPARG-LBD and 5 nM Tb-GST-antibody were added; purchased Invitrogen PV4894
T1 sequence (P37231 238-503 limits assumed): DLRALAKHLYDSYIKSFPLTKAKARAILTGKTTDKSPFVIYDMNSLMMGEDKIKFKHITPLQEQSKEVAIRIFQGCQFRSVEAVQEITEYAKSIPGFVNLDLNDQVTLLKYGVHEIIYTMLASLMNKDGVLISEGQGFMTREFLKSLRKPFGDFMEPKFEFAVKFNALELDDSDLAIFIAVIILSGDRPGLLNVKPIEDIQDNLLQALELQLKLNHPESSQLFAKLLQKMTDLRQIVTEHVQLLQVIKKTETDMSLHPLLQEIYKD
Test: LanthaScreen TR-FRET PPARG Competitive Binding Assay
Parameters: key: “+” indicates the degree of the binding activity, and as the number of “+” increases, the binding activity is stronger; ++: “+” indicates the degree of the binding activity, and as the number of “+” increases, the binding activity is stronger; +++: “+” indicates the degree of the binding activity, and as the number of “+” increases, the binding activity is stronger; ++++: “+” indicates the degree of the binding activity, and as the number of “+” increases, the binding activity is stronger
Conditions: degree of binding activity
How it was run: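 GST-tagged human PPARG LBD in a TR-FRET competitive binding kit, 1 h at room temperature. Read-out is the 518/488 nm emission ratio (340 nm excitation); activity = 100% − compound ratio/vehicle ratio, compared with rosiglitazone.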

Row | Binding assay (1 μLM) | Compound
1 | ++++ | C[C@H](NC(=O)c1ccc2c(c1)CCCN2Cc1ccc(-c2ccccc2C(=O)O)cc1F)c1ccccc1 [Example 106]
2 | +++ | C[C@H](NC(=O)c1ccc2c(c1)CCCN2Cc1ccc(-c2ccccc2C(N)=O)cc1F)c1ccccc1 [Example 107, (S)-1-((2′-carbamoyl-3-fluoro-[1,1′-biphenyl]-4-yl)methyl)-N-(1-phenylethyl)-1,2,3,4-tetrahydroquinoline-6-carboxamide]
3 | ++++ | C[C@H](NC(=O)c1ccc2c(c1)CCCN2Cc1ccc(-c2ccccc2C(=O)O)cc1F)c1ccc2ccccc2c1 [Example 108, (S)-3′-fluoro-4′-((6-((1-(naphthalene-2-yl)ethyl)carbamoyl)-3,4-dihydroquinoline-1(28)-yl)methyl)-[1,1′-biphenyl]-2-carboxylic acid]
4 | +++ | C[C@H](NC(=O)c1ccc2c(c1)CCCN2Cc1ccc(-c2ccccc2C(=O)O)cc1F)c1ccc([N+](=O)[O-])cc1 [Example 109, (S)-3′-fluoro-4′-((6-((1-(4-nitrophenyl)ethyl)carbamoyl)-3,4-dihydroquinoline-1(2H)-yl)methyl)-[1,1′-biphenyl]-2-caboxylic acid]
5 | ++++ | Cc1ccc([C@H](C)NC(=O)c2ccc3c(c2)CCCN3Cc2ccc(-c3ccccc3C(=O)O)cc2F)cc1F [Example 111, (S)-3′-fluoro-4′-((6-((1-(3-fluoro-4-methylphenyl)ethyl)carbamoyl)-3,4-dihydroquinoline-1(2H)-yl)methyl)-[1,1′-biphenyl]-2-caboxylic acid]
6 | +++ | C[C@H](NC(=O)c1ccc2c(c1)CCCN2Cc1ccc(-c2ccccc2C(N)=O)cc1F)c1ccc(C#N)cc1 [Example 112, (S)-1-((2′-carbamoyl-3-fluoro-[1,1′-biphenyl]-4-yl)methyl)-N-(1-(4-cyanophenyl)ethyl)-1,2,3,4-tetrahydroquinoline-6-carboxamide]
7 | +++ | Cc1ccc([C@H](C)NC(=O)c2ccc3c(c2)CCCN3Cc2ccc(-c3ccccc3C(N)=O)cc2F)cc1F [Example 114, (S)-1-((2′-carbamoyl-3-fluoro-[1,1′-biphenyl]-4-yl)methyl)-N-(1-(3-fluoro-4-methylphenyl)ethyl)-1,2,3,4-tetrahydroquinoline-6-carboxamide]
8 | +++ | C[C@H](NC(=O)c1ccc2c(c1)CCCN2Cc1cccc(-c2ccccc2C(=O)O)c1)c1ccccc1 [Example 116, (S)-3′-((6-((1-phenylethyl)carbamoyl)-3,4-dihydroquinoline-1(2H)-yl)methyl)-[1,1′-biphenyl]-2-carboxylic acid]
9 | +++ | C[C@H](NC(=O)c1ccc2c(c1)CCCN2Cc1cccc(-c2ccccc2C(N)=O)c1)c1ccccc1 [Example 117, (S)-1-((2′-carbamoyl-[1,1′-biphenyl]-3-yl)methyl)-N-(1-phenylethyl)-1,2,3,4-tetrahydroquinoline-6-carboxamide]
10 | ++ | C[C@H](NC(=O)c1ccc2c(c1)CCCN2Cc1cccc(-c2ccccc2C(=O)O)c1)c1ccc([N+](=O)[O-])cc1 [Example 119, (S)-3′-((6-((1-(4-nitrophenyl)ethyl)carbamoyl)-3,4-dihydroquinoline-1(2H)-yl)methyl)-[1,1′-biphenyl]-2-carboxylic acid]
11 | ++++ | C[C@H](NC(=O)c1ccc2c(c1)CCCN2Cc1cccc(-c2ccccc2C(=O)O)c1)c1ccc2ccccc2c1 [Example 120, (S)-3′-((6-((1-(naphthalene-2-yl)ethyl)carbamoyl)-3,4-dihydroquinoline-1(2H)-yl)methyl)-[1,1′-biphenyl]-2-carboxylic acid]
12 | +++ | Cc1ccc([C@H](C)NC(=O)c2ccc3c(c2)CCCN3Cc2cccc(-c3ccccc3C(=O)O)c2)cc1F [Example 121, (S)-3′-((6-((1-(3-fluoro-4-methylphenyl)ethyl)carbamoyl)-3,4-dihydroquinoline-1(2H)-yl)methyl)-[1,1′-biphenyl]-2-carboxylic acid]
13 | ++ | C[C@H](NC(=O)c1ccc2c(c1)CCCN2Cc1cccc(-c2ccccc2C(N)=O)c1)c1ccc(C#N)cc1 [Example 122, (S)-1-((2′-carbamoyl-[1,1′-biphenyl]-3-yl)methyl)-N-(1-(4-cyanophenyl)ethyl)-1,2,3,4-tetrahydroquinoline-6-carboxamide]
14 | ++++ | C[C@H](NC(=O)c1ccc2c(c1)CCCN2Cc1cccc(-c2ccccc2C(N)=O)c1)c1ccc2ccccc2c1 [Example 124, (S)-1-((2′-carbamoyl-[1,1′-biphenyl]-3-yl)methyl)-N-(1-(naphthalene-2-yl)ethyl)-1,2,3,4-tetrahydroquinoline-6-carboxamide]
15 | +++ | Cc1ccc([C@H](C)NC(=O)c2ccc3c(c2)CCCN3Cc2cccc(-c3ccccc3C(N)=O)c2)cc1F [Example 125, (S)-1-((2′-carbamoyl-[1,1′-biphenyl]-3-yl)methyl)-N-(1-(3-fluoro-4-methylphenyl)ethyl)-1,2,3,4-tetrahydroquinoline-6-carboxamide]
16 | +++ | C[C@H](NC(=O)c1ccc2c(c1)CCCN2Cc1cccc(-c2ccccc2C(=O)O)c1F)c1ccccc1 [Example 126, (S)-2′-fluoro-3′-((6-((1-phenylethyl)carbamoyl)-3,4-dihydroquinoline-1(2H)-yl)methyl)-[1,1′-biphenyl]-2-carboxylic acid]
17 | +++ | C[C@H](NC(=O)c1ccc2c(c1)CCCN2Cc1cccc(-c2ccccc2C(N)=O)c1F)c1ccccc1 [Example 127, (S)-1-((2′-carbamoyl-2-fluoro-[1,1′-biphenyl]-3-yl)methyl)-N-(1-phenylethyl)-1,2,3,4-tetrahydroquinoline-6-carboxamide]
18 | ++ | C[C@H](NC(=O)c1ccc2c(c1)CCCN2Cc1cccc(-c2ccccc2C(=O)O)c1F)c1ccc([N+](=O)[O-])cc1 [Example 128, (S)-2′-fluoro-3′-((6-((1-(4-nitrophenyl)ethyl)carbamoyl)-3,4-dihydroquinoline-1(2H)-yl)methyl)-[1,1′-biphenyl]-2-caboxylic acid]
19 | ++++ | C[C@H](NC(=O)c1ccc2c(c1)CCCN2Cc1cccc(-c2ccccc2C(=O)O)c1F)c1ccc2ccccc2c1 [Example 129, (S)-2′-fluoro-3′-((6-((1-(naphthalene-2-yl)ethyl)carbamoyl)-3,4-dihydroquinoline-1(28)-yl)methyl)-[1,1′-biphenyl]-2-carboxylic acid]

Row | Compound | Binding assay (1 μLM)
20 | C[C@H](NC(=O)c1ccc2c(c1)OCCN2Cc1ccc(-c2ccccc2C(=O)[O-])cc1)c1ccccc1.[Na+] [Example 103, sodium (S)-4′-((7-((1-phenylethyl)carbamoyl)-2H-benzo[b][1,4]oxazine-4(3H)-yl)methyl)-[1,1′-biphenyl]-2-carboxylate] | ++
21 | C[C@H](NC(=O)c1ccc2c(c1)OCCN2Cc1ccc(-c2ccccc2C(=O)[O-])cc1)c1ccc([N+](=O)[O-])cc1.[Na+] [Example 105, sodium (S)-4′-((7-((1-(4-nitrophenyl)ethyl)carbamoyl)-2-benzo[b][1,4]oxazine-4(3H)-yl)methyl)-[1,1′-biphenyl]-2-carboxylate] | +
